From patent US20240158446A1, “CYCLIC COMPOUND HAVING SELECTIVE INHIBITORY ACTION ON KRAS OVER HRAS AND NRAS” (CHUGAI SEIYAKU KABUSHIKI KAISHA, priority 2021, published 2024)

Experiments:
[1] = molecular target: GDP-bound NRAS wild-type protein (Homo sapiens, UniProt P01111); assay: Binding to NRAS by surface plasmon resonance (SPR), Single Cycle Kinetics; settings: SPR, GDP-bound NRAS wild-type protein vs GDP-bound KRAS wild-type protein
[2] = molecular target: GDP-bound HRAS wild-type protein (Homo sapiens, UniProt P01112); assay: Binding to HRAS by surface plasmon resonance (SPR), Single Cycle Kinetics; settings: SPR, GDP-bound HRAS wild-type protein vs GDP-bound KRAS wild-type protein
Sequence of GDP-bound HRAS wild-type protein (P01112 whole entry): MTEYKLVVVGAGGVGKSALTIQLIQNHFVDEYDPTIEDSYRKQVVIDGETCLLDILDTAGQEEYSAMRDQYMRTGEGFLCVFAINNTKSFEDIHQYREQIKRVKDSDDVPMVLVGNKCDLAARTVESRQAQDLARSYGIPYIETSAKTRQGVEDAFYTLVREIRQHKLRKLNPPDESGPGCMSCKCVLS

Sequence of GDP-bound NRAS wild-type protein (P01111 whole entry): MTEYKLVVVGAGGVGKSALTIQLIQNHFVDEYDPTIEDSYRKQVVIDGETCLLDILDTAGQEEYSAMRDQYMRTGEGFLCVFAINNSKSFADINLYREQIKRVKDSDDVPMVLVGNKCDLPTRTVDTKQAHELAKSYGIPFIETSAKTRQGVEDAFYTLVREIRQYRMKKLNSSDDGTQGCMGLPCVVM

SMILES	NRAS/KRAS (ratio of KD value for NRAS to KD value for KRAS) [1]	HRAS/KRAS (ratio of KD value for HRAS to KD value for KRAS) [2]
CCO[C@@H]1C[C@H]2C(=O)NC3(CCC3)C(=O)N(C)[C@@H](C3CCCC3)C(=O)N(C)[C@H](C(=O)N3CCOCC3)CC(=O)N(C)[C@@H](CC(C)C)C(=O)N[C@@H]([C@@H](C)CC)C(=O)N3CC[C@H]3C(=O)N(C)[C@H]3C[C@@H](C)CCN(C3=O)[C@@H](Cc3ccc(C(F)(F)F)cc3)C(=O)N(C)CC(=O)N[C@@H](CCc3cc(F)c(C(F)(F)F)c(F)c3)C(=O)N2C1 [PP1026]	B (a compound having 3 or more and less than 10 is denoted as B)	B (a compound having 3 or more and less than 10 is denoted as B)
CCO[C@@H]1C[C@H]2C(=O)NC3(CCC3)C(=O)N(C)[C@@H](C3CCCC3)C(=O)N(C)[C@H](C(=O)N3CCOCC3)CC(=O)N(CC)[C@@H](CC(C)C)C(=O)N[C@@H]([C@@H](C)CC)C(=O)N(C)CC(=O)N(C)[C@H]3C[C@@H](C)CCN(C3=O)[C@@H](Cc3ccc(C(F)(F)F)cc3)C(=O)N(C)CC(=O)N[C@@H](CCc3cc(F)c(C(F)(F)F)c(F)c3)C(=O)N2C1 [PP1030]	B (a compound having 3 or more and less than 10 is denoted as B)	B (a compound having 3 or more and less than 10 is denoted as B)
CCO[C@@H]1C[C@H]2C(=O)NC3(CCC3)C(=O)N(C)[C@@H](C3CCCC3)C(=O)N(C)[C@H](C(=O)N(C)C)CC(=O)N(C)[C@@H](CC(C)C)C(=O)N[C@@H]([C@@H](C)CC)C(=O)N(C)CC(=O)N(C)[C@H]3CC(C)=CCN(C3=O)[C@@H](Cc3ccc(C(F)(F)F)cc3)C(=O)N(C)CC(=O)N[C@@H](CCc3cc(F)c(C(F)(F)F)c(F)c3)C(=O)N2C1 [PP1032]	C (A compound having a KD ratio of 0.1 or more and less than 3 is denoted as C)	C (A compound having a KD ratio of 0.1 or more and less than 3 is denoted as C)
CCO[C@@H]1C[C@H]2C(=O)NC3(CCC3)C(=O)N(C)[C@@H](C3CCCC3)C(=O)N(C)[C@H](C(=O)N3CCOCC3)CC(=O)N(C)[C@@H](CC(C)C)C(=O)N[C@@H]([C@@H](C)CC)C(=O)N(C)CC(=O)N(C)[C@H]3CC(C)=CCN(C3=O)[C@@H](Cc3ccc(C(F)(F)F)cc3)C(=O)N(C)CC(=O)N[C@@H](CCc3cc(F)c(C(F)(F)F)c(F)c3)C(=O)N2C1 [PP1039]	C (A compound having a KD ratio of 0.1 or more and less than 3 is denoted as C)	C (A compound having a KD ratio of 0.1 or more and less than 3 is denoted as C)
CCO[C@@H]1C[C@H]2C(=O)NC3(CCC3)C(=O)N(C)[C@@H](C3CCCC3)C(=O)N(C)[C@H](C(=O)N(C)C)CC(=O)N(C)[C@@H](CC)C(=O)N[C@@H]([C@@H](C)CC)C(=O)N(C)CC(=O)N(C)[C@H]3CC(C)=C(C)CN(C3=O)[C@@H](Cc3ccc(C(F)(F)F)cc3)C(=O)N(C)CC(=O)N[C@@H](CCc3cc(F)c(C(F)(F)F)c(F)c3)C(=O)N2C1 [PP1048]	C (A compound having a KD ratio of 0.1 or more and less than 3 is denoted as C)	C (A compound having a KD ratio of 0.1 or more and less than 3 is denoted as C)
CCO[C@@H]1C[C@H]2C(=O)NC3(CCC3)C(=O)N(C)[C@@H](C3CCCC3)C(=O)N(C)[C@H](C(=O)N(C)C)CC(=O)N(C)[C@@H](CC)C(=O)N[C@@H]([C@@H](C)CC)C(=O)N3CCC[C@H]3C(=O)N(C)[C@H]3C/C=C\CCN(C3=O)[C@@H](Cc3ccc(C(F)(F)F)cc3)C(=O)N(C)CC(=O)N[C@@H](CCc3cc(F)c(C(F)(F)F)c(F)c3)C(=O)N2C1 [PP1056]	A (a compound having 10 or more and less than 20 is denoted as A)	A (a compound having 10 or more and less than 20 is denoted as A)
CCO[C@@H]1C[C@H]2C(=O)NC3(CCC3)C(=O)N(C)[C@@H](C3CCCC3)C(=O)N(C)[C@H](C(=O)N(C)C)CC(=O)N(C)[C@@H](CC)C(=O)N[C@@H]([C@@H](C)CC)C(=O)N3CCCC[C@H]3C(=O)N(C)[C@H]3C/C=C\CCN(C3=O)[C@@H](Cc3ccc(C(F)(F)F)cc3)C(=O)N(C)CC(=O)N[C@@H](CCc3cc(F)c(C(F)(F)F)c(F)c3)C(=O)N2C1 [PP1058]	A (a compound having 10 or more and less than 20 is denoted as A)	B (a compound having 3 or more and less than 10 is denoted as B)
CCO[C@@H]1C[C@H]2C(=O)NC3(CCC3)C(=O)N(C)[C@@H](C3CCCC3)C(=O)N(C)[C@H](C(=O)N(C)C)CC(=O)N(C)[C@@H](CC)C(=O)N[C@@H]([C@@H](C)CC)C(=O)N3CC[C@@H]3C(=O)N(C)[C@H]3C/C=C\CCN(C3=O)[C@@H](Cc3ccc(C(F)(F)F)cc3)C(=O)N(C)CC(=O)N[C@@H](CCc3cc(F)c(C(F)(F)F)c(F)c3)C(=O)N2C1 [PP1064]	A (a compound having 10 or more and less than 20 is denoted as A)	A (a compound having 10 or more and less than 20 is denoted as A)
CC[C@H](C)[C@@H]1NC(=O)[C@H](CC(C)C)N(C)C(=O)C[C@@H](C(=O)N2CCOCC2)N(C)C(=O)[C@H](C2CCCC2)N(C)C(=O)C2(CCC2)NC(=O)[C@@H]2[C@H](OC)CCN2C(=O)[C@H](CCc2cc(F)c(C(F)(F)F)c(F)c2)NC(=O)CN(C)C(=O)[C@H](Cc2ccc(C(F)(F)F)cc2)N2CCCC[C@@H](C2=O)N(C)C(=O)CN(C)C1=O [PP1078]	B (a compound having 3 or more and less than 10 is denoted as B)	B (a compound having 3 or more and less than 10 is denoted as B)
CCO[C@@H]1CCN2C(=O)[C@H](CCc3cc(F)c(C(F)(F)F)c(F)c3)NC(=O)CN(C)C(=O)[C@H](Cc3ccc(C(F)(F)F)cc3)N3CCCCC[C@@H](C3=O)N(C)C(=O)CN(C)C(=O)[C@H]([C@@H](C)CC)NC(=O)[C@H](CC(C)C)N(C)C(=O)C[C@@H](C(=O)N3CCOCC3)N(C)C(=O)[C@H](C3CCCC3)N(C)C(=O)C3(CCC3)NC(=O)[C@H]12 [PP1082]	A (a compound having 10 or more and less than 20 is denoted as A)	B (a compound having 3 or more and less than 10 is denoted as B)
CCCO[C@@H]1CCN2C(=O)[C@H](CCc3cc(F)c(C(F)(F)F)c(F)c3)NC(=O)CN(C)C(=O)[C@H](Cc3ccc(C(F)(F)F)cc3)N3CCCCC[C@@H](C3=O)N(C)C(=O)CN(C)C(=O)[C@H]([C@@H](C)CC)NC(=O)[C@H](CC(C)C)N(C)C(=O)C[C@@H](C(=O)N3CCOCC3)N(C)C(=O)[C@H](C3CCCC3)N(C)C(=O)C3(CCC3)NC(=O)[C@H]12 [PP1083]	B (a compound having 3 or more and less than 10 is denoted as B)	B (a compound having 3 or more and less than 10 is denoted as B)
CC[C@H](C)[C@@H]1NC(=O)[C@H](CC(C)C)N(C)C(=O)C[C@@H](C(=O)N2CCOCC2)N(C)C(=O)[C@H](C2CCCC2)N(C)C(=O)C2(CCC2)NC(=O)[C@@H]2[C@H](OC)CCN2C(=O)[C@H](CCc2cc(F)c(C(F)(F)F)c(F)c2)NC(=O)CN(C)C(=O)[C@H](Cc2ccc(C(F)(F)F)cc2)N2CCCC[C@@H](C2=O)N(C)C(=O)CN(C)C1=O [PP1084]	C (A compound having a KD ratio of 0.1 or more and less than 3 is denoted as C)	B (a compound having 3 or more and less than 10 is denoted as B)
CCO[C@@H]1C[C@H]2C(=O)NC3(CCC3)C(=O)N(C)[C@@H](C3CCCC3)C(=O)N(C)[C@H](C(=O)N3C4CCC3COC4)CC(=O)N(C)[C@@H](CC)C(=O)N[C@@H]([C@@H](C)CC)C(=O)N(C)CC(=O)N(C)[C@H]3C/C=C\CCN(C3=O)[C@@H](Cc3ccc(C(F)(F)F)cc3)C(=O)N(C)CC(=O)N[C@@H](CCc3cc(F)c(C(F)(F)F)c(F)c3)C(=O)N2C1 [PP1093]	AA (a compound having 20 or more is denoted as AA)	A (a compound having 10 or more and less than 20 is denoted as A)
CC[C@H](C)[C@@H]1NC(=O)[C@H](CC(C)C)N(C)C(=O)C[C@@H](C)N(C)C(=O)[C@H](C2CCCC2)N(C)C(=O)C2(CCC2)NC(=O)[C@@H]2CCCN2C(=O)[C@H](CCc2cc(F)c(C(F)(F)F)c(F)c2)NC(=O)CN(C)C(=O)[C@H](Cc2ccc(C(F)(F)F)cc2)N2CC/C=C\C[C@@H](C2=O)N(C)C(=O)CN(C)C1=O [PP1099]	B (a compound having 3 or more and less than 10 is denoted as B)	A (a compound having 10 or more and less than 20 is denoted as A)
CCO[C@@H]1C[C@H]2C(=O)NC3(CCC3)C(=O)N(C)[C@@H](C3CCCC3)C(=O)N(C)[C@H](C)CC(=O)N(C)[C@@H](CC(C)C)C(=O)N[C@@H]([C@@H](C)CC)C(=O)N(C)CC(=O)N(C)[C@H]3C/C=C\CCN(C3=O)[C@@H](Cc3ccc(C(F)(F)F)cc3)C(=O)N(C)CC(=O)N[C@@H](CCc3cc(F)c(C(F)(F)F)c(F)c3)C(=O)N2C1 [PP1100]	B (a compound having 3 or more and less than 10 is denoted as B)	B (a compound having 3 or more and less than 10 is denoted as B)
